# Like-named read-outs stand apart in the source and are kept apart here.
# What was measured:
# [1] = tested on: gastric secretion; assay: Effects on Gastric Secretion in the Pyloric Ligated Rat (method of Shay et al.); assay type: in vivo; settings: intraduodenal, 100 mg/kg i.d., 3 hours
# Description: 1. Effects on Gastric Secretion in the Pyloric Ligated Rat
# The method as described by Shay et al. (Gastroenterol. 26, 906 (1945)) was used. After overnight starvation the pylorus of a rat was ligated under halothane aenesthesia and the compound under test or vehicle only administered intraduodenally and the rats allowed to recover. They were sacrificed three hours later and the gastric juice removed. After measurement of the volume of secretion, its hydrogen ion concentration, [H^+ ], was determined by titration with 0.5 n NaOH to pH 7. Groups of 4-6 animals were used for each treatment and the inhibitory effect of the compound was ascertained by comparison of the mean values obtained with those from a simultaneously set up control group of animals which received vehicle only. Students `t` test was applied for significance between groups. The mean values for % inhibition obtained for a number of experiments are shown in the following Table 1, the dosage being 100 mg/kg i.d.
# [2] = tested on: indomethacin induced gastric damage; assay: Anti-ulcer activity: inhibition of indomethacin induced gastric damage in the rat (method of Elegbe); assay type: in vivo; settings: po, 5 h; for inhibition in vivo at 100 mg/kg: read-out: % Inhibition (of gastric damage); for inhibition in vivo at 50 mg/kg: 50 mg/kg (footnote *) orally
# Description: Rats were starved overnight, given indomethacin subcutaneously (15 mg/kg) and sacrificed 5 hours later. Stomachs were inflated with 0.9% saline, cut along the greater curvature, pinned out and scored for gastric damage by the following system:
# Score 1-3 according to the degree of erythema and slight haemorrhage.
# Score 4-6 according to the degree of mucosal erosion.
# Score 7-9 according to the depth of gastric damage.
# Compound or vehicle was administered orally 30 minutes prior to, and at 2 hours after dosing with indomethacin. Mean values per treatment were obtained using the above scoring system and the Mann Witney test applied for significance between such values.
# [3] = tested on: androgen; settings: J. Pharm. Sci. 58, 138-141 (1969); cited from earlier work
# [4] = tested on: acetylcholine; settings: Farmaco. Ed. Sci. 19, 668-702 (1964); cited from earlier work
# [5] = read-out: % Inhibition, Volume (of gastric secretion)
# [6] = read-out: % Inhibition, [H^+ ] (hydrogen ion concentration of gastric juice)
# [7] = 100 mg/kg orally, 30 minutes prior to and 2 hours after indomethacin (15 mg/kg s.c.)
# [8] = 30 minutes prior to and 2 hours after indomethacin (15 mg/kg s.c.)
structure (smiles),measurement,setting,value
"CON=C(c1ccncc1)c1ccc(C)cc1 [Compound 6, 4-methylphenyl 4-pyridinyl ketone, O-methyl oxime]",inhibition in vivo at 100 mg/kg,[1]; [5],81%
same,inhibition in vivo at 100 mg/kg,[1]; [6],89%
same,inhibition in vivo at 100 mg/kg,[2]; [7],80%
"CN(C)CCCON=C(c1ccccn1)c1ccco1 [Compound 31, 2-furyl 2-pyridinyl ketone, O-3-N,N-dimethylaminopropyl oxime]",inhibition in vivo at 100 mg/kg,[1]; [5],70%
same,inhibition in vivo at 100 mg/kg,[1]; [6],30%
same,inhibition in vivo at 100 mg/kg,[2]; [7],92%
"CO/N=C(\c1ccccc1)c1ccncc1 [Compound 4, phenyl 4-pyridinyl ketone, O-methyl oxime]",inhibition in vivo at 100 mg/kg,[1]; [5],82%
same,inhibition in vivo at 100 mg/kg,[1]; [6],50%
same,inhibition in vivo at 100 mg/kg,[2]; [7],77%
"CO/N=C(\c1ccncc1)c1ccc(OC)cc1 [Compound 7, 4-methoxyphenyl 4-pyridinyl ketone, O-methyl oxime]",inhibition in vivo at 100 mg/kg,[2]; [7],88%
"COc1ccc(C(=NOCCN(C)C)c2cccs2)cc1 [4-methoxyphenyl 2-thienyl ketone, O-dimethylaminoethyl oxime]",anti-androgenic activity,[3],showed anti-androgenic activity
same,effective dose relative to toxic dose,[3],the effective dose was very close to the toxic dose
"N#CCON=C(c1ccccc1)c1ccncc1 [Compound 20, Phenyl 4-pyridinyl ketone, O-cyanomethyl oxime]",inhibition in vivo at 100 mg/kg,[2],96%
"CON=C(c1ccncc1)c1cccs1 [Compound 14, 4-pyridinyl 2-thienyl ketone, O-methyl oxime]",inhibition in vivo at 100 mg/kg,[2]; [7],77%
"CN(C)CCCON=C(c1ccccc1)c1ccncc1 [Compound 29, phenyl 4-pyridinyl ketone, O-3-N,N-dimethylaminopropyl oxime]",inhibition in vivo at 100 mg/kg,[1]; [5],72%
same,inhibition in vivo at 100 mg/kg,[1]; [6],45%
same,inhibition in vivo at 100 mg/kg,[2]; [7],65%
"CON=C(c1ccccc1)c1ccncc1 [Compound 1, Phenyl 4-pyridinyl ketone, O-methyl oxime]",inhibition in vivo at 100 mg/kg,[1]; [5],82%
same,inhibition in vivo at 100 mg/kg,[1]; [6],41%
same,inhibition in vivo at 50 mg/kg,[2]; [8],86%
"CN(C)CCON=C(c1ccccc1)c1cccnc1 [Compound 26, phenyl 3-pyridinyl ketone, O-2-N,N-dimethylaminoethyl oxime]",inhibition in vivo at 100 mg/kg,[1]; [5],84%
"CN(C)CCON=C(c1ccccc1)c1ccccn1 [Compound 24, phenyl 2-pyridinyl ketone, O-2-N,N-dimethylaminoethyl oxime]",inhibition in vivo at 100 mg/kg,[1]; [5],81%
same,inhibition in vivo at 100 mg/kg,[1]; [6],36%
same,inhibition in vivo at 100 mg/kg,[2]; [7],100%
"C=CCON=C(c1ccccc1)c1ccncc1 [Compound 22, phenyl 4-pyridinyl ketone, O-allyl oxime]",inhibition in vivo at 100 mg/kg,[1]; [5],76%
same,inhibition in vivo at 100 mg/kg,[2]; [7],79%
"CCON=C(c1ccccc1)c1ccncc1 [Compound 21, phenyl 4-pyridinyl ketone, O-ethyl oxime]",inhibition in vivo at 100 mg/kg,[1]; [5],77%
same,inhibition in vivo at 100 mg/kg,[1]; [6],24%
same,inhibition in vivo at 50 mg/kg,[2]; [8],100%
"CO/N=C(\c1ccccc1)c1ccccn1 [Compound 2, phenyl 2-pyridinyl ketone, O-methyl oxime]",inhibition in vivo at 100 mg/kg,[1]; [5],76%
same,inhibition in vivo at 100 mg/kg,[1]; [6],33%
same,inhibition in vivo at 50 mg/kg,[2]; [8],79%
"CON=C(c1ccccn1)c1ccccn1 [Compound 17, di-2-pyridinyl ketone, O-methyl oxime]",inhibition in vivo at 100 mg/kg,[1]; [5],83%
same,inhibition in vivo at 100 mg/kg,[1]; [6],14%
same,inhibition in vivo at 100 mg/kg,[2]; [7],76%
"CON=C(c1ccncc1)c1ccc(Cl)c(Cl)c1 [Compound 10, 3,4-dichlorophenyl 4-pyridinyl ketone, O-methyl oxime]",inhibition in vivo at 100 mg/kg,[1]; [6],49%
"CON=C(c1ccncc1)c1ccc(CO)cc1 [Compound 19, 4-hydroxymethylphenyl 4-pyridinyl ketone, O-methyl oxime]",inhibition in vivo at 100 mg/kg,[1]; [5],66%
same,inhibition in vivo at 100 mg/kg,[1]; [6],35%
same,inhibition in vivo at 100 mg/kg,[2]; [7],71%
"C[N+](C)(C)CCON=C(c1ccccc1)c1ccccn1.[I-] [phenyl 2-pyridinyl ketone, O-dimethylaminoethyl oxime methiodide]",acetylcholine antagonistic activity,[4],showed acetylcholine antagonistic activity
"CON=C(c1ccsc1)c1ccccn1 [Compound 12, 2-pyridinyl 3-thienyl ketone, O-methyl oxime]",inhibition in vivo at 100 mg/kg,[1]; [5],78%
same,inhibition in vivo at 100 mg/kg,[1]; [6],20%
same,inhibition in vivo at 100 mg/kg,[2]; [7],100%
"CN(C)CCCON=C(c1ccccc1)c1ccccn1 [Compound 25, phenyl 2-pyridinyl ketone, O-3-N,N-dimethylaminopropyl oxime]",inhibition in vivo at 100 mg/kg,[1]; [5],91%
same,inhibition in vivo at 100 mg/kg,[1]; [6],65%
same,inhibition in vivo at 100 mg/kg,[2]; [7],77%
"CO/N=C(/c1ccccc1)c1cc[n+]([O-])cc1 [Compound 32, Phenyl 4-pyridinyl ketone, O-methyl oxime, N-oxide (Z-isomer)]",inhibition in vivo at 100 mg/kg,[1]; [5],84%
same,inhibition in vivo at 100 mg/kg,[1]; [6],32%
same,inhibition in vivo at 100 mg/kg,[2]; [7],64%
"CO/N=C(\c1ccccc1)c1cccnc1 [Compound 3, phenyl 3-pyridinyl ketone, O-methyl oxime]",inhibition in vivo at 100 mg/kg,[1]; [5],87%
same,inhibition in vivo at 100 mg/kg,[1]; [6],50%
same,inhibition in vivo at 50 mg/kg,[2]; [8],82%
"C#CCON=C(c1ccccc1)c1ccncc1 [Compound 23, phenyl 4-pyridinyl ketone, O-propargyl oxime]",inhibition in vivo at 100 mg/kg,[1]; [5],81%
"CN(C)CCCON=C(c1ccccc1)c1cccnc1 [Compound 27, phenyl 3-pyridinyl ketone, O-3-N,N-dimethylaminopropyl oxime]",inhibition in vivo at 100 mg/kg,[1]; [5],85%
"CO/N=C(\c1ccncc1)c1ccc(Cl)cc1 [Compound 9, 4-chlorophenyl 4-pyridinyl ketone, O-methyl oxime]",inhibition in vivo at 100 mg/kg,[2]; [7],80%
"CON=C(c1ccncc1)c1ccc(C(F)(F)F)cc1 [Compound 18, 4-pyridinyl 4-trifluoromethylphenyl ketone, O-methyl oxime]",inhibition in vivo at 100 mg/kg,[1]; [5],59%
"CON=C(c1ccccn1)c1cccs1 [Compound 11, 2-pyridinyl 2-thienyl ketone, O-methyl oxime]",inhibition in vivo at 100 mg/kg,[1]; [5],84%
same,inhibition in vivo at 100 mg/kg,[1]; [6],36%
same,inhibition in vivo at 100 mg/kg,[2]; [7],78%
"CN(C)CCON=C(c1ccccc1)c1ccncc1 [Compound 28, phenyl 4-pyridinyl ketone, O-2-N,N-dimethylaminoethyl oxime]",inhibition in vivo at 100 mg/kg,[1]; [5],83%
same,inhibition in vivo at 100 mg/kg,[1]; [6],92%
same,inhibition in vivo at 100 mg/kg,[2]; [7],92%
"CN(C)CCCON=C(c1ccccn1)c1cccs1 [Compound 30, 2-pyridinyl 2-thienyl ketone, O-3-N,N-dimethylaminopropyl oxime]",inhibition in vivo at 100 mg/kg,[1]; [5],78%
same,inhibition in vivo at 100 mg/kg,[1]; [6],64%
same,inhibition in vivo at 100 mg/kg,[2]; [7],77%
"CO/N=C(\c1ccncc1)c1ccc(F)cc1 [Compound 8, 4-fluorophenyl 4-pyridinyl ketone, O-methyl oxime]",inhibition in vivo at 100 mg/kg,[1]; [5],76%
same,inhibition in vivo at 100 mg/kg,[1]; [6],11%
same,inhibition in vivo at 100 mg/kg,[2]; [7],100%
"CON=C(Cc1ccccn1)c1ccccc1 [Compound 16, phenyl 2-pyridinylmethyl ketone, O-methyl oxime]",inhibition in vivo at 100 mg/kg,[1]; [5],46%
same,inhibition in vivo at 100 mg/kg,[1]; [6],25%
same,inhibition in vivo at 100 mg/kg,[2]; [7],72%
"CN(C)CCON=C(Cc1ccccn1)c1ccccc1 [phenyl 2-picolinyl ketone, O-dimethylaminoethyl oxime]",effective dose relative to toxic dose,[3],the effective dose was very close to the toxic dose

# From patent US4297359A, “Anti-ulcer compositions containing certain pyridyl oxime ethers” (ACF Chemiefarma NV, priority 1978, dated 1981)
